This experiment has as its system T1, TS-SNAP-A1AR.
T1 construct: signal peptide of the murine 5HT3A receptor (N); expressed in transfected cells; receptor purified on MagStrep beads after labelling in cells
Kind of experiment: SDS-PAGE in-gel fluorescence of labeled TS-SNAP-A1AR. Format: cell-based. The note with it: HEK293G TS-SNAP-A1AR cells, 300 nM 11 or 130 nM 12 (then 1 μM Met-Tet-SulfoCy5), 2 h; band at ca. 59.1 kDa. The protocol: Figure 3 Molecular pharmacology and biochemical characterization of 11 and 12. NanoBRET ligand-binding data were measured in HEK293 cells stably expressing the human NL-A1AR (A–C) or rat NL-A1AR (D–F). […] Data were normalized to maximal BRET signals in the absence of unlabeled competing ligands (total binding, TB). (C, F) NanoBRET dissociation kinetics experiments with 11 (SulfoCy5) performed in human and rat NL-A1AR HEK293T cells, respectively. Cells were treated with 250 nM 11 (SulfoCy5, lilac open circles) for 5 h and CA200645 (black open triangles) for 2 h. […] TS-SNAP-A1AR was purified and separated on an SDS-PAGEgel gel, and direct Cy5 fluorescence was visualized using in-gel fluorescence. […]
The small reduction in the BRET signal observed toward the end of the reads could be mostly likely ascribed to substrate (furimazine) consumption. […] To confirm covalent labeling of A1AR by 11 and 12, HEK293G cells stably expressing a Twin-Strep-SNAP-A1AR(TS-SNAP-A1R) construct were treated with 11 or 12 prior to purification, separation by sodium dodecyl sulfate-polyacrylamide gel electrophoresis (SDS-PAGE) and visualization of labeled samples by in-gel fluorescence (Figure 3G). […]
Autocorrelation curves (AC) were constructed from fluorescence fluctuation traces and analysed within Zen Black (2012) software. […]

Regarding `CCCCn1c(=O)c2[nH]c(C34CCC(C(=O)NCCNC(=O)CCNC(=O)c5ccc(OC(=O)CCCCC[N+]6=C(/C=C/C=C/C=C7/N(C)c8ccc(S(=O)(=O)O)cc8C7(C)C)C(C)(C)c7cc(S(=O)(=O)[O-])ccc76)c(F)c5)(CC3)CC4)nc2n(CCCC)c1=O` [Compound 11, 1-(6-(4-((3-((2-(4-(1,3-Dibutyl-2,6-dioxo-2,3,6,7-tetrahydro-1H-purin-8-yl)bicyclo[2.2.2]octane-1-carboxamido)ethyl)amino)-3-oxopropyl)carbamoyl)-2-fluorophenoxy)-6-oxohexyl)-3,3-dimethyl-2-((1E,3E)-5-((E)-1,3,3-trimethyl-5-sulfoindolin-2-ylidene)penta-1,3-dien-1-yl)-3H-indol-1-ium-5-sulfonate], the “in-gel Cy5 fluorescence band of SulfoCy5-labeled TS-SNAP-A1AR” value is on record as “strong band”.

With `CCCCn1c(=O)c2[nH]c(C34CCC(C(=O)NCCNC(=O)CCNC(=O)c5ccc(OC(=O)CCC(=O)NCCOCCOCCNC(=O)O[C@H]6CC/C=C/CCC6)c(F)c5)(CC3)CC4)nc2n(CCCC)c1=O` [Compound 12, 4-((3-((2-(4-(1,3-Dibutyl-2,6-dioxo-2,3,6,7-tetrahydro-1H-purin-8-yl)bicyclo[2.2.2]octane-1-carboxamido)ethyl)amino)-3-oxopropyl)carbamoyl)-2-fluorophenyl (R,E)-1-(Cyclooct-4-en-1-yloxy)-1,12-dioxo-5,8-dioxa-2,11-diazapentadecan-15-oate], the “in-gel Cy5 fluorescence band of SulfoCy5-labeled TS-SNAP-A1AR” value is recorded as “strong band”.
